Assay results: patent US6441023B1 (American Home Products Corporation, priority 1997, dated 2002)

Tests used:
[1] = target: T1, MMP 13 (Homo sapiens, UniProt P45452); assay: MMP 13 inhibition (HTS); type: biochemical
[2] = target: T2, TACE (Homo sapiens, UniProt P78536); assay: Procedure for measuring TACE inhibition; type: biochemical
T2 construct: purchased Immunex

[3] = target: T3, MMP 1 (Homo sapiens, UniProt P03956); assay: In vitro collagenase assay (human recombinant fibroblast collagenase); type: biochemical
T3 construct: human recombinant fibroblast collagenase (truncated, mw=18,828, WAR, Radnor)
T3 sequence (P03956 100-269 limits assumed): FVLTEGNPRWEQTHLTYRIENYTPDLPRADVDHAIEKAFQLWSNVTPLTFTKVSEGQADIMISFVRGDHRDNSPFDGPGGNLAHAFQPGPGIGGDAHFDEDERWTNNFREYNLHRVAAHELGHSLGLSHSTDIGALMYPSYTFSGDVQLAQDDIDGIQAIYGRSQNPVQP

[4] = target: T1, MMP 13; assay: MMP 13 inhibition (manual); type: biochemical; settings: read-out: MMP 13 IC 50
[5] = target: T4, MMP 9 (Homo sapiens, UniProt P14780); assay: In vitro gelatinase assay (human neutrophil gelatinase B); type: biochemical; settings: read-out: MMP 9 IC 50
T4 construct: from tissue; host or cells: human neutrophils
T4 sequence (P14780 94-707): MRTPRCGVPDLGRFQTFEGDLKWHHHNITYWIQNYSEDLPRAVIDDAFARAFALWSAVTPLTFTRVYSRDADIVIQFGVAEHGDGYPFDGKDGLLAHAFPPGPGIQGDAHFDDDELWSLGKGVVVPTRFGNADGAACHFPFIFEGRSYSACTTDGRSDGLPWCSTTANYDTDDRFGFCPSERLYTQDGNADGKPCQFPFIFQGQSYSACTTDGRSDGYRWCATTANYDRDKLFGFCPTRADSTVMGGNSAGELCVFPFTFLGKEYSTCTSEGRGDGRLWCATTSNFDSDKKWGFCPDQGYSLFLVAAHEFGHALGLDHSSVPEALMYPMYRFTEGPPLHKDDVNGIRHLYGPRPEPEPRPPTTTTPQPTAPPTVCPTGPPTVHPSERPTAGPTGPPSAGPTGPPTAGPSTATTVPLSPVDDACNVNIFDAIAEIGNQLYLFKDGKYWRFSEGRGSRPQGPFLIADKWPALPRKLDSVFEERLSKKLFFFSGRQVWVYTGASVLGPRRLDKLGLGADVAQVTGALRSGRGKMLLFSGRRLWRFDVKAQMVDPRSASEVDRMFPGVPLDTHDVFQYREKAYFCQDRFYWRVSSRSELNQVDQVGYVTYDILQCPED

T2 sequence (P78536 215-824): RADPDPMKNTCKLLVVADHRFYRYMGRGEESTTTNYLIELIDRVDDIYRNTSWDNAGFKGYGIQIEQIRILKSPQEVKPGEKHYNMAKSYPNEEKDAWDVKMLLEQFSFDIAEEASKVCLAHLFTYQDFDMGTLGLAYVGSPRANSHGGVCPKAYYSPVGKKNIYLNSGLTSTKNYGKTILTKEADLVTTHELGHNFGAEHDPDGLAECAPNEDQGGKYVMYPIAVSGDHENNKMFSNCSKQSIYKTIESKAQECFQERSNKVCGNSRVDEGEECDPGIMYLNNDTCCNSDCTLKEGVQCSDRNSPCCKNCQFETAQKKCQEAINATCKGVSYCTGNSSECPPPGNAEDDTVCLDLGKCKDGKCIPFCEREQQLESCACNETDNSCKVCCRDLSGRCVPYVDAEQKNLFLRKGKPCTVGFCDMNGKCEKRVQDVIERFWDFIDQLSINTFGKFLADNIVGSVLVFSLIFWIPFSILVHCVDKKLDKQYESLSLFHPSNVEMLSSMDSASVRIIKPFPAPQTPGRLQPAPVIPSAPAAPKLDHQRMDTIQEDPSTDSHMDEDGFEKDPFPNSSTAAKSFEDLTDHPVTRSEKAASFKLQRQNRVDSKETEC

Compound	MMP 13 % inhibition at 0.2 μM (HTS) [1]	MMP 13 % inhibition at 36 nM (HTS) [1]	further results
2-(4-Acetylamino-benzenesufanyl)-N-hydroxy-3-phenyl-propionarnide [Example 129]	90%	–	–
CC(C)C(SCCc1ccccc1)C(=O)NO (centres unmarked) [Example 117, N-Hydroxy-3-methyl-2-phenethylsulfanyl-butyramide]	–	–	inhibition at 0.2 µM ([1]; read-out: MMP 13 % inhibition at 0.2 μM (HTS), 0.2 μM): 7%; inhibition at 1 µM ([2]; read-out: TACE % inhibition at 1 µM): 8.1%
O=C(CCC(C(=O)NO)[S+]([O-])c1ccc(Br)cc1)NO (centres unmarked) [Example 135, 4-Hydroxycarbamoyl-4-(4-bromo-benzenesulfinyl)-butyric acid hydfoxyamide]	79%	–	–
O=C(CCC(C(=O)NO)[S+]([O-])c1ccccc1C(F)(F)F)NO (centres unmarked) [Example 138, 4-Hydroxycarbamoyl-4-(2-triuoromethyl-benzenesulfmyl)-butyric acid hydroxyamide]	20%	–	–
O=C(CCC(C(=O)NO)S(=O)(=O)c1ccccc1C(F)(F)F)NO (centres unmarked) [Example 139, 4-Hydroxycarbamoyl-4-(2-trifiuoromethyl-benzenesulfonyl)-butyric acid hydroxyamide]	8%	–	–
C[S+]([O-])c1ccc([S+]([O-])C(COCc2ccccc2)C(=O)NO)cc1 (centres unmarked) [Example 147, 3-Benzyloxy-N-hydroxy-2-(4-methanesulfinyl-benzenesulfmyl)-propionamide]	73%	–	–
CCCCCCC(C(=O)NO)S(=O)(=O)c1cccc(OC)c1 (centres unmarked) [Example 164, 2-(3-Methoxybenzenesulfonyl)tanoic acid hydroxyamide]	74%	–	–
CCCCCCC(SCCc1ccccn1)C(=O)NO (centres unmarked) [Example 173, 2-(2-Pyridin-2-yl-ethylsulfanyl)-octanoic acid hydroxyaride]	–	18%	–
CCCCCCC(SC1N=NN(c2ccccc2)N1)C(=O)NO (centres unmarked) [Example 174, 2-(2-Phenyl-5H-tetrazol-5-ylsulfanyl)-octanoic acid hydroxyanide]	–	10%	TACE % inhibition at 1 µM ([2]; 1 µM): 27.7%
CCCCCCC(C(=O)NO)[S+]([O-])CC(=O)Nc1ccc2ccccc2c1 (centres unmarked) [Example 191, 2-(Naphthalen-2-ylcarbamoylmethanesulfimyl)-cmtanoic acid hydroxyamide]	–	−45%	–
CCCCCCC(C(=O)NO)S(=O)(=O)c1nccs1 (centres unmarked) [Example 195, 2-(Thiazol-2-ylsulfonyl)-octanoic acid hydroxyamde]	–	−9%	–
CCCCCCC(C(=O)NO)S(=O)(=O)c1cccc2cccnc12 (centres unmarked) [Example 196, 2-(Quinoline-8-sulfonyl)-octanoic acid hydroxyamde]	–	−18%	–
CCCCCCC(C(=O)NO)S(=O)(=O)CC1NC(=O)NC1=O (centres unmarked) [Example 198, 2-(2,5-Dioxo-inidazolidinylmethylsulfonyl)-octanoic acid hydroxyamide]	–	−39%	–
CCCCCCC(C(=O)NO)S(=O)(=O)c1ccc(OS(=O)(=O)c2ccccc2[N+](=O)[O-])cc1 (centres unmarked) [Example 238, 2-Nitro-benzenesulfonic acid 4-(1-hydroxycarbamoyl-heptylsulfonyl)-hydroxyamide]	–	22%	–
CCCCOc1ccc(S(=O)(=O)C2(C(=O)NO)CCN(CC)CC2)cc1 [Example 245, 1-Ethyl-4-(4-butoxy-benzenesulfonyl)-piperidine-4-carboxylic acid hydroxyamide]	–	–	melting point: 98 °C; IC50 ([3]; read-out: MMP 1 IC 50): 7060 nM; IC50 [4]: 2.2 nM; IC50 [5]: 43.4 nM; inhibition at 10 µM ([2]; read-out: TACE % inhibition at 10 micromolar (*)): 52%
CCCCOc1ccc(S(=O)(=O)C2(C(=O)NO)CCN(CCCC)CC2)cc1 [Example 246, 1-n-Butyl-4-(4-butoxy-benzenesulfonyl)-piperidine-4-carboxylic acid hydroxyamide]	–	–	melting point: 121 °C; inhibition at 10 µM ([3]; read-out: MMP 1 % inhibition at 10 micromolar (*)): 50.3%; IC50 [4]: 2.4 nM; IC50 [5]: 28.3 nM; IC50 ([2]; read-out: TACE IC 50): 880 nM
